Laboratory results: paper PMC11883000, “Structure-function relationship of ASH1L and histone H3K36 and H3K4 methylation” (Nature Communications, 2025)
Read-outs that look alike come from different tables or passages of the source.

Experiments:
ASH1LPHD [1] = molecular target: T1, ASH1LPHD (Homo sapiens, UniProt Q9NR48); test: Tryptophan fluorescence binding, WT ASH1LPHD
T1 construct: ASH1LPHD (aa 2579-2629); GST (N, cleaved yes); made in house; host or cells: E. coli BL21 or Rosetta2 (DE3) pLysS
Text: Human ASH1L constructs ASH1LPHD (aa 2579-2629), ASH1LBD (aa 2430-2564) and ASH1LPHD-BAH (aa 2579- 2794 and 2579-2834), ASH1LBD-PHD (aa 2430-2629) were cloned into pDEST15 vector with a TEV or Precission cleavage site. ASH1LBD-PHD-BAH (aa 2436-2833), ASH1LSET-BD-PHD (aa 2074-2629) and ASH1LSET-BD-PHD-BAH (aa 2069-2834) were in pGEX6P-1 and pMOCR vectors. Mutants of Ash1LPHD and Ash1LBD were generated following Quikchange mutagenesis protocols. Each construct was expressed in BL21 or Rosetta2 (DE3) pLysS cells in LB or minimal media supplemented with ^15NH4Cl (and ZnCl2 for PHD finger-containing constructs). Cultures were induced with 0.5 mM IPTG and grown for 18 h at 16 °C. After harvesting, the GST-tagged proteins were purified using glutathione agarose (Thermo Scientific) in 20 mM Tris pH 7.5, 150-500 mM NaCl, 5 mM MgCl2 and 2 mM DTT. For experiments requiring GST-tagged constructs, the proteins were eluted in a buffer containing 20 mM Tris pH 7.5, 150-500 mM NaCl, 5 mM MgCl2, 50 mM reduced glutathione and 2 mM DTT. For crystallography and biochemical assays, the GST tag was cleaved overnight at 4 °C with TEV or PreScission protease, and proteins were further purified by size exclusion chromatography (SEC). Protein fractions were checked for purity by SDS-PAGE and concentrated in a concentrator (Millipore).
(§1) Fluorescence spectra were collected at 25 °C on a Fluoromax-3 and Fluoromax-4 plus C spectrofluorometers (HORIBA). […] Emission spectra were recorded between 320 and 360 nm with a 0.5 nm step size and a 0.5 s integration time. The Kd values were determined using a nonlinear least-squares analysis and the equation:3 ΔI=ΔImax((L+P+Kd)−L+P+Kd^2−4[P][L])/2[P] where [L] is concentration of the peptide, [P] is concentration of the protein, ΔI is the observed change of signal intensity, and ΔImax is the difference in signal intensity of the free and bound states of the protein. The Kd values were averaged over three independent experiments with error calculated as the standard deviation between the runs.

ASH1LPHD D2584A = molecular target: T2, ASH1LPHD D2584A (Homo sapiens, UniProt Q9NR48, D2584A); test: Tryptophan fluorescence binding, ASH1LPHD D2584A; details: 25 °C, pH 7.5, mean ± S.D., three independent experiments
T2 construct: ASH1LPHD (aa 2579-2629); GST (N, cleaved yes); made in house; host or cells: E. coli BL21 or Rosetta2 (DE3) pLysS
Text: (§2) Human ASH1L constructs ASH1LPHD (aa 2579-2629), ASH1LBD (aa 2430-2564) and ASH1LPHD-BAH (aa 2579- 2794 and 2579-2834), ASH1LBD-PHD (aa 2430-2629) were cloned into pDEST15 vector with a TEV or Precission cleavage site. ASH1LBD-PHD-BAH (aa 2436-2833), ASH1LSET-BD-PHD (aa 2074-2629) and ASH1LSET-BD-PHD-BAH (aa 2069-2834) were in pGEX6P-1 and pMOCR vectors. Mutants of Ash1LPHD and Ash1LBD were generated following Quikchange mutagenesis protocols. Each construct was expressed in BL21 or Rosetta2 (DE3) pLysS cells in LB or minimal media supplemented with ^15NH4Cl (and ZnCl2 for PHD finger-containing constructs). Cultures were induced with 0.5 mM IPTG and grown for 18 h at 16 °C. […]
as §1

ASH1LPHD D2595A = molecular target: T3, ASH1LPHD D2595A (Homo sapiens, UniProt Q9NR48, D2595A); test: Tryptophan fluorescence binding, ASH1LPHD D2595A; details: 25 °C, pH 7.5, mean ± S.D., three independent experiments
T3 construct: ASH1LPHD (aa 2579-2629); GST (N, cleaved yes); made in house; host or cells: E. coli BL21 or Rosetta2 (DE3) pLysS
Text: as §2, §1

ASH1LPHD Q2601K = molecular target: T4, ASH1LPHD Q2601K (Homo sapiens, UniProt Q9NR48, Q2601K); test: Tryptophan fluorescence binding, ASH1LPHD Q2601K; details: 25 °C, pH 7.5, mean ± S.D., three independent experiments
T4 construct: ASH1LPHD (aa 2579-2629); GST (N, cleaved yes); made in house; host or cells: E. coli BL21 or Rosetta2 (DE3) pLysS
Text: as §2, §1

ASH1LPHD-BAH = molecular target: T5, ASH1LPHD-BAH (Homo sapiens, UniProt Q9NR48); test: Tryptophan fluorescence binding, ASH1LPHD-BAH; details: 25 °C, pH 7.5, mean ± S.D., three independent experiments
T5 construct: ASH1LPHD-BAH (aa 2579- 2794 and 2579-2834); GST (N, cleaved yes); made in house; host or cells: E. coli BL21 or Rosetta2 (DE3) pLysS
Text: as §2, §1

H3K4me3-NCP [2] = format: binding; details: EMSA; 0.025 µM nucleosome, increasing protein, pH 7.5, on ice 5 min
H3K4me3-NCP [3] = test: Liquid HMT assay of GST-ASH1LSET-BD-PHD on H3K4me3-nucleosomes; format: biochemical; details: D2595K mutant compared to WT ASH1LSET-BD-PHD on H3K4me3-NCP; presence or absence of MRG15; 3H-SAM, 60 min at 30 °C, pH 8
Experimental: Fig. 6 Binding of ASH1LPHD to H3K4me3 inhibits enzymatic activity of ASH1L. a Overlay of ^1H,^15N HSQC spectra of ASH1LBD in the absence (black) or presence of the indicated molar ratios of ASH1LSET. b Overlay of ^1H,^15N HSQC spectra of ASH1LPHD in the absence (black) or presence (blue) of ASH1LSET. c Liquid histone methyltransferase (HMT) assays of GST-ASH1LSET-BD-PHD-BAH on recombinant nucleosomes carrying H3K4me3 or unmodified NCP. GST-ASH1LSET-BD-PHD-BAH was pre-incubated with substrate and MRG15 (or BSA) prior addition of ^3H S-adenosyl methionine. GST, control. […] Live cells were counted over a 6-day time course. […]
Recombinant ASH1L (WT and mutant) constructs, tagged at the N-terminus with GST and at the C-terminus with 6XHis, were generated and purified using Sepharose beads and Ni-NTA beads. […] Methyltransferase activity of the proteins was measured with 0.5 μCi of ^3H labeled S-adenosyl methionine (18 Ci/mmol; PerkinElmer Life Sciences). […] The reactions were captured on P81 filter paper, the free ^3H-labeled SAM was washed away, and the paper was analyzed by Liquid Scintillation.

ASH1LPHD [4] = molecular target: T1, ASH1LPHD; test: NMR titration (1H,15N HSQC), WT ASH1LPHD; format: binding; details: unlabeled ASH1LSET titrated into 15N-labeled ASH1LPHD
Text: as §2, with “°C. After harvesting, the GST-tagged proteins were purified using glutathione agarose (Thermo Scientific) in 20 mM Tris pH 7.5, 150-500 mM NaCl, 5 mM MgCl2 and 2 mM DTT.” for “°C.”
(§3) NMR experiments were performed at 298 K on Varian 600 MHz and 900 MHZ spectrometers equipped with a cryogenic probe. Chemical shift perturbation experiments were carried out using 0.1–0.2 mM uniformly ^15N-labeled wild type or mutant proteins in 25 mM Tris pH 7.5 buffer, supplemented with 150 mM NaCl, 5 mM DTT and 5-7% D2O. ^1H,^15N heteronuclear single quantum coherence (HSQC) or transverse relaxation optimized spectroscopy (TROSY) spectra were recorded in the absence and presence of increasing concentrations of ligands. […]

ASH1LBD = test: NMR titration (1H,15N HSQC), ASH1LBD; format: binding, Human; details: unlabeled ASH1LSET titrated into 15N-labeled ASH1LBD
Text: as §2, with “°C. After harvesting, the GST-tagged proteins were purified using glutathione agarose (Thermo Scientific) in 20 mM Tris pH 7.5, 150-500 mM NaCl, 5 mM MgCl2 and 2 mM DTT.” for “°C.”
as §3

[5] = WT, summary of tryptophan fluorescence and MST, di- and trimethylated peptides, read-out: binding affinity

Q: Which Kd (ASH1LPHD [1]; [5]) does the source give for `C[C@H](N)C(=O)N[C@@H](CCCNC(=N)N)C(=O)N[C@H](C(=O)N[C@@H](CCCC[N+](C)(C)C)C(=O)N[C@@H](CCC(N)=O)C(=O)N[C@H](C(=O)N[C@@H](C)C(=O)N[C@@H](CCCNC(=N)N)C(=O)N[C@@H](CCCCN)C(=O)N[C@@H](CO)C(=O)N[C@H](C(=O)NCC(=O)O)[C@@H](C)O)[C@@H](C)O)[C@@H](C)O` [H3K4me3] here?
A: 1 to 2 µM

Q: What about the Kd (ASH1LPHD D2584A) of the same molecule?
A: 5 to 7 µM

Q: And the Kd (ASH1LPHD D2595A)?
A: 5 to 7 µM

Q: And the Kd (ASH1LPHD Q2601K)?
A: 1 ± 0.3 µM

Q: And the Kd (ASH1LPHD-BAH)?
A: 1 ± 0.4 µM

Q: “ASH1LPHD: Human ASH1L PHD finger (aa 2579-2629) (HEKDDDVIRCICGLYKDEGLMIQCDKCMVWQHCDCMGVNSDVEHYLCEQCD; left off: GST, end not stated, cleaved)” was tested. Which “binding to H3K4me3-NCP” value (H3K4me3-NCP [2]) did it give?
A: incapable

Q: With “ASH1LSET-BD-PHD D2595K mutant: D2595K mutant of ASH1LSET-BD-PHD (aa 2074-2629)” as the molecule, how does the methyltransferase activity (H3K4me3-NCP [3]) read?
A: increase in the methyltransferase activity

Q: Which results are given for `C[C@H](N)C(=O)N[C@@H](CCCNC(=N)N)C(=O)N[C@H](C(=O)N[C@@H](CCCCN(C)C)C(=O)N[C@@H](CCC(N)=O)C(=O)N[C@H](C(=O)N[C@@H](C)C(=O)N[C@@H](CCCNC(=N)N)C(=O)N[C@@H](CCCCN)C(=O)N[C@@H](CO)C(=O)N[C@H](C(=O)NCC(=O)O)[C@@H](C)O)[C@@H](C)O)[C@@H](C)O` [H3K4me2]?
A: Kd (ASH1LPHD [1]; [5]): 1 to 2 µM; Kd (ASH1LPHD [1]; tryptophan fluorescence, H3 aa 1-12, excitation 295 nm, emission 320-360 nm, 25 °C, 0.5–2 μM protein, 20–25 mM Tris pH 7.5, 150 mM NaCl, 3 mM DTT, mean ± S.D., three independent experiments, read-out: Kd): 1 ± 0.4 µM

Q: Which “interaction of ASH1LSET with ASH1LPHD (CSPs)” value (ASH1LPHD [4]) does the source give for “ASH1LSET: isolated unlabeled ASH1LSET domain” here?
A: does not interact with ASH1LPHD

Q: And the “interaction of ASH1LSET with ASH1LBD (CSPs)” value (ASH1LBD)?
A: direct contact with ASH1LBD
